Measured values published in publication PMC6722883 (FEBS Open Bio, 2019).

Assay: physchem
Conditions: buffer or solvent, pH 7.2

CC[C@H](C)[C@@H]1NC(=O)[C@@H]2CCCN2C(=O)[C@H](CO)NC(=O)[C@H](CCSC)NC(=O)[C@H](C)NC(=O)[C@H](CO)NC(=O)[C@@H]2CSSC[C@H](NC(=O)CN)C(=O)N[C@@H](CSSC[C@@H](C(N)=O)NC1=O)C(=O)N[C@@H](CO)C(=O)N[C@@H](Cc1cnc[nH]1)C(=O)N1CCC[C@H]1C(=O)N[C@@H](C(C)C)C(=O)N2 [TxID, α‐Conotoxin TxID]
remaining at 4 h: ~50%
